1 compound from article PMC5218480 (PLoS ONE, 2017) can be followed below.

The structures appear in SMILES notation.

The assay concerns MV-4-11 cells. The assay is described as follows: Gene expression microarray analysis (Affymetrix PrimeView) and GSEA. In kind it is cell-based, human. More on the design: RFU PODN (11730768_x_at) / Fold change /veh PODN (11730768_x_at) / RFU LINC00158 (11744669_a_at) / Fold change /veh LINC00158 (11744669_a_at) / RFU DUSP10 (11751237_a_at) / Fold change /veh DUSP10 (11751237_a_at) / RFU ID3 (11757404_x_at) / Fold change /veh ID3 (11757404_x_at) / RFU PLEKHG5 (11737974_s_at) / Fold change /veh PLEKHG5 (11737974_s_at) / RFU LRRC4B (11730491_at) / Fold change /veh LRRC4B (11730491_at) / RFU GIMAP4 (11747438_a_at) / Fold change /veh GIMAP4 (11747438_a_at) / RFU KRT8 (11758183_x_at) / Fold change /veh KRT8 (11758183_x_at) / RFU CNN1 (11734310_a_at) / Fold change /veh CNN1 (11734310_a_at) / RFU VPS37D (11726825_at) / Fold change /veh VPS37D (11726825_at) / RFU C10orf10 (11716522_x_at) / Fold change /veh C10orf10 (11716522_x_at) / RFU KIR2DL2 /// KIR2DL4 /// KIR2DL5A /// KIR2DL5B /// KIR2DS1 /// KIR2DS2 /// KIR2DS3 /// KIR2DS4 /// KIR3DL3 /// KIR3DL3 /// KIR3DS1 (11738374_at) / Fold change /veh KIR2DL2 /// KIR2DL4 /// KIR2DL5A /// KIR2DL5B /// KIR2DS1 /// KIR2DS2 /// KIR2DS3 /// KIR2DS4 /// KIR3DL3 /// KIR3DL3 /// KIR3DS1 (11738374_at) / RFU C1QL1 (11718748_at) / Fold change /veh C1QL1 (11718748_at) / RFU TMPRSS4 (11747572_a_at) / Fold change /veh TMPRSS4 (11747572_a_at) / RFU HAMP (11756126_x_at) / Fold change /veh HAMP (11756126_x_at) / RFU RNFT2 (11725882_a_at) / Fold change /veh RNFT2 (11725882_a_at) / RFU NR4A2 (11747474_a_at) / Fold change /veh NR4A2 (11747474_a_at) / RFU ABCC12 (11746883_a_at) / Fold change /veh ABCC12 (11746883_a_at) / RFU TMEM136 (11760407_x_at) / Fold change /veh TMEM136 (11760407_x_at) / RFU CLDN22 /// WWC2 (11732394_at) / Fold change /veh CLDN22 /// WWC2 (11732394_at) / RFU HLA-DPB1 (11760878_x_at) / Fold change /veh HLA-DPB1 (11760878_x_at) / RFU SPINT1 (11716480_a_at) / Fold change /veh SPINT1 (11716480_a_at) / RFU GAP43 (11754022_s_at) / Fold change /veh GAP43 (11754022_s_at) / RFU A4GNT (11735810_at) / Fold change /veh A4GNT (11735810_at) / RFU PRB3 (11715151_x_at) / Fold change /veh PRB3 (11715151_x_at) / RFU TUBB4B (11761932_at) / Fold change /veh TUBB4B (11761932_at) / RFU CAPN14 (11732068_a_at) / Fold change /veh CAPN14 (11732068_a_at) / RFU TMCC2 (11721928_a_at) / Fold change /veh TMCC2 (11721928_a_at) / RFU IRGQ (11745062_a_at) / Fold change /veh IRGQ (11745062_a_at) / RFU FAM174B (11720279_a_at) / Fold change /veh FAM174B (11720279_a_at) / RFU TMPRSS4 (11748680_a_at) / Fold change /veh TMPRSS4 (11748680_a_at) / RFU FAM212B (11763350_a_at) / Fold change /veh FAM212B (11763350_a_at) / RFU PLEKHG5 (11743358_a_at) / Fold change /veh PLEKHG5 (11743358_a_at) / RFU ZSCAN30 (11745921_a_at) / Fold change /veh ZSCAN30 (11745921_a_at) / RFU CMKLR1 (11741424_a_at) / Fold change /veh CMKLR1 (11741424_a_at) / RFU LOC101060620 /// MAPK8IP1 (11723275_at) / Fold change /veh LOC101060620 /// MAPK8IP1 (11723275_at) / RFU SPTSSB (11747773_x_at) / Fold change /veh SPTSSB (11747773_x_at) / RFU PRSS12 (11739890_at) / Fold change /veh PRSS12 (11739890_at) / RFU BIN1 (11741810_x_at) / Fold change /veh BIN1 (11741810_x_at) / RFU WNT11 (11732464_a_at) / Fold change /veh WNT11 (11732464_a_at) / RFU C10orf10 (11716521_a_at) / Fold change /veh C10orf10 (11716521_a_at) / RFU C5orf56 (11738089_at) / Fold change /veh C5orf56 (11738089_at) / RFU CYB561 (11721691_x_at) / Fold change /veh CYB561 (11721691_x_at) / RFU ANKRD19P (11752326_a_at) / Fold change /veh ANKRD19P (11752326_a_at) / RFU OR2T12 /// OR2T33 /// OR2T8 (11738714_s_at) / Fold change /veh OR2T12 /// OR2T33 /// OR2T8 (11738714_s_at) / RFU VCAN (11748164_a_at) / Fold change /veh VCAN (11748164_a_at) / RFU JSRP1 (11732532_at) / Fold change /veh JSRP1 (11732532_at) / RFU KRTAP10-11 (11738290_x_at) / Fold change /veh KRTAP10-11 (11738290_x_at) / RFU MYO3A (11730013_a_at) / Fold change /veh MYO3A (11730013_a_at) / RFU EBF3 (11725865_a_at) / Fold change /veh EBF3 (11725865_a_at) / RFU CAMK2N1 (11719241_x_at) / Fold change /veh CAMK2N1 (11719241_x_at) / RFU C5orf56 (11738088_a_at) / Fold change /veh C5orf56 (11738088_a_at) / RFU OLFML3 (11715873_a_at) / Fold change /veh OLFML3 (11715873_a_at) / RFU LOC100653217 /// NTM (11731650_a_at) / Fold change /veh LOC100653217 /// NTM (11731650_a_at) / RFU MAPK11 (11762145_a_at) / Fold change /veh MAPK11 (11762145_a_at) / RFU FIZ1 (11724087_x_at) / Fold change /veh FIZ1 (11724087_x_at) / RFU OASL (11726364_x_at) / Fold change /veh OASL (11726364_x_at) / RFU SOX15 (11748057_x_at) / Fold change /veh SOX15 (11748057_x_at) / RFU CD79A (11719716_a_at) / Fold change /veh CD79A (11719716_a_at) / RFU HIST1H1D (11736915_at) / Fold change /veh HIST1H1D (11736915_at) / RFU CASKIN2 (11723855_a_at) / Fold change /veh CASKIN2 (11723855_a_at) / RFU LOC730098 (11760151_x_at) / Fold change /veh LOC730098 (11760151_x_at) / RFU OR4N2 (11742367_at) / Fold change /veh OR4N2 (11742367_at) / RFU PRRT2 (11749266_a_at) / Fold change /veh PRRT2 (11749266_a_at) / RFU SNX32 (11753110_a_at) / Fold change /veh SNX32 (11753110_a_at) / RFU CDHR5 (11726645_a_at) / Fold change /veh CDHR5 (11726645_a_at) / RFU RCAN1 (11760418_a_at) / Fold change /veh RCAN1 (11760418_a_at) / RFU FAM167A (11723789_a_at) / Fold change /veh FAM167A (11723789_a_at) / RFU FAM26E (11764081_at) / Fold change /veh FAM26E (11764081_at) / RFU ISYNA1 (11749810_s_at) / Fold change /veh ISYNA1 (11749810_s_at) / RFU ACY1 (11761880_at) / Fold change /veh ACY1 (11761880_at) / RFU 11764098_at / Fold change /veh 11764098_at / RFU SAMD14 (11745864_x_at) / Fold change /veh SAMD14 (11745864_x_at) / RFU NPB (11741838_a_at) / Fold change /veh NPB (11741838_a_at) / RFU TMPRSS6 (11731388_a_at) / Fold change /veh TMPRSS6 (11731388_a_at) / RFU KRTAP10-2 (11738614_at) / Fold change /veh KRTAP10-2 (11738614_at) / RFU ARHGAP8 /// PRR5-ARHGAP8 (11727945_x_at) / Fold change /veh ARHGAP8 /// PRR5-ARHGAP8 (11727945_x_at) / RFU KRTAP5-7 /// NADSYN1 (11734609_at) / Fold change /veh KRTAP5-7 /// NADSYN1 (11734609_at) / RFU RASL12 (11751679_a_at) / Fold change /veh RASL12 (11751679_a_at) / RFU CDKN2B (11736163_a_at) / Fold change /veh CDKN2B (11736163_a_at) / RFU PRF1 (11729649_at) / Fold change /veh PRF1 (11729649_at) / RFU, ZNF638 /// ZNF638-IT1 / Fold change vs veh, ZNF638 /// ZNF638-IT1 / RFU, PANK3 / Fold change vs veh, PANK3 / RFU, SH3YL1 / Fold change vs veh, SH3YL1 / RFU, ZEB2 / Fold change vs veh, ZEB2 / RFU, NRIP1 / Fold change vs veh, NRIP1 / RFU, PTTG1IP / Fold change vs veh, PTTG1IP / RFU, CAPN2 / Fold change vs veh, CAPN2 / RFU, MED14 / Fold change vs veh, MED14 / RFU, SNORA58 / Fold change vs veh, SNORA58 / RFU, C1orf63 / Fold change vs veh, C1orf63 / RFU, LRRFIP1 / Fold change vs veh, LRRFIP1 / RFU, NDUFAF7 / Fold change vs veh, NDUFAF7 / RFU, SLC12A2 / Fold change vs veh, SLC12A2 / RFU, IBTK / Fold change vs veh, IBTK / RFU, ESF1 / Fold change vs veh, ESF1 / Fold change vs veh, TMEM50B / RFU, TAOK1 / Fold change vs veh, TAOK1 / RFU, ACBD3 / Fold change vs veh, ACBD3 / RFU, TMA16 / Fold change vs veh, TMA16 / RFU, RWDD3 / Fold change vs veh, RWDD3 / RFU, BCAT1 / Fold change vs veh, BCAT1 / RFU, EDEM3 / Fold change vs veh, EDEM3 / RFU, TMEM33 / Fold change vs veh, TMEM33 / RFU, WDR75 / Fold change vs veh, WDR75 / RFU, AHCTF1 / Fold change vs veh, AHCTF1 / RFU, TFRC / Fold change vs veh, TFRC / RFU, ZDHHC17 / Fold change vs veh, ZDHHC17 / RFU, NOM1 / Fold change vs veh, NOM1 / RFU, ARL8B / Fold change vs veh, ARL8B / RFU, ZBTB11 / Fold change vs veh, ZBTB11 / RFU, TAMM41 / Fold change vs veh, TAMM41 / RFU, KIAA1704 /// LOC100996395 / Fold change vs veh, KIAA1704 /// LOC100996395 / RFU, ING1 / Fold change vs veh, ING1 / RFU, TRMT61B / Fold change vs veh, TRMT61B / RFU, FUBP3 / Fold change vs veh, FUBP3 / RFU, TP53 / Fold change vs veh, TP53 / RFU, TNKS2 / Fold change vs veh, TNKS2 / RFU, ZFP14 / Fold change vs veh, ZFP14 / RFU, ACTR2 / Fold change vs veh, ACTR2 / RFU, PPP3R1 / Fold change vs veh, PPP3R1 / RFU, PIK3R1 / Fold change vs veh, PIK3R1 / RFU, HNRNPA1 / Fold change vs veh, HNRNPA1 / RFU, RNF170 / Fold change vs veh, RNF170 / RFU, ZNF28 / Fold change vs veh, ZNF28 / RFU, RNGTT / Fold change vs veh, RNGTT / RFU, OGT / Fold change vs veh, OGT / RFU, BRD1 / Fold change vs veh, BRD1 / RFU, MARS / Fold change vs veh, MARS / RFU, ZNF655 / Fold change vs veh, ZNF655 / RFU, FAHD1 / Fold change vs veh, FAHD1 / RFU, BDP1 / Fold change vs veh, BDP1 / RFU, LRRCC1 / Fold change vs veh, LRRCC1 / RFU, ARID1A / Fold change vs veh, ARID1A / RFU, ZNF146 / Fold change vs veh, ZNF146 / RFU, ZNF330 / Fold change vs veh, ZNF330 / RFU, GPN3 / Fold change vs veh, GPN3 / RFU, C9orf123 / Fold change vs veh, C9orf123 / RFU, N4BP2L2 / Fold change vs veh, N4BP2L2 / RFU, ARFIP1 / Fold change vs veh, ARFIP1 / RFU, FAM179B / Fold change vs veh, FAM179B / RFU, BCL10 / Fold change vs veh, BCL10 / RFU, UHRF1BP1L / Fold change vs veh, UHRF1BP1L / RFU, BET1 / Fold change vs veh, BET1 / RFU, CNOT2 / Fold change vs veh, CNOT2 / RFU, ZNF268 / Fold change vs veh, ZNF268 / Fold change vs veh, ZNF507 / RFU, DGCR2 / Fold change vs veh, DGCR2 / RFU, WDSUB1 / Fold change vs veh, WDSUB1 / Fold change vs veh, HSP90B1 /// MIR3652 / RFU, ADSS / Fold change vs veh, ADSS / RFU, GK / Fold change vs veh, GK / RFU, ZNF148 / Fold change vs veh, ZNF148 / RFU, TAF9 / Fold change vs veh, TAF9 / RFU, SLC1A5 / Fold change vs veh, SLC1A5 / RFU, SLMO2 / Fold change vs veh, SLMO2 / RFU, ABCC4 / Fold change vs veh, ABCC4 / RFU, LOC101060439 /// RAP1B / Fold change vs veh, LOC101060439 /// RAP1B / RFU, RFX7 / Fold change vs veh, RFX7 / RFU, GTPBP10 / Fold change vs veh, GTPBP10 / RFU, CNEP1R1 / Fold change vs veh, CNEP1R1 / RFU, BIVM-ERCC5 /// ERCC5 / Fold change vs veh, BIVM-ERCC5 /// ERCC5 / RFU, ILF3 / Fold change vs veh, ILF3 / RFU 11762660_at / Fold change /veh 11762660_at / RFU VCAN (11757783_s_at) / Fold change /veh VCAN (11757783_s_at) / RFU DDX43 (11728927_at) / Fold change /veh DDX43 (11728927_at) / RFU KRT8 (11758188_x_at) / Fold change /veh KRT8 (11758188_x_at) / RFU NKD1 (11759106_at) / Fold change /veh NKD1 (11759106_at) / RFU SRD5A1 (11742802_a_at) / Fold change /veh SRD5A1 (11742802_a_at) / RFU TPSAB1 /// TPSB2 (11721975_s_at) / Fold change /veh TPSAB1 /// TPSB2 (11721975_s_at) / RFU GSTM3 (11746129_a_at) / Fold change /veh GSTM3 (11746129_a_at) / RFU IL23R (11737362_x_at) / Fold change /veh IL23R (11737362_x_at) / RFU TMEM51 (11727254_a_at) / Fold change /veh TMEM51 (11727254_a_at) / RFU PIWIL2 (11732686_x_at) / Fold change /veh PIWIL2 (11732686_x_at) / RFU ORM1 (11744905_x_at) / Fold change /veh ORM1 (11744905_x_at) / RFU CCDC152 (11743942_at) / Fold change /veh CCDC152 (11743942_at) / RFU ECM1 (11717891_a_at) / Fold change /veh ECM1 (11717891_a_at) / RFU IL23R (11748794_a_at) / Fold change /veh IL23R (11748794_a_at) / RFU TNFAIP8L3 (11732012_x_at) / Fold change /veh TNFAIP8L3 (11732012_x_at) / RFU MBOAT4 (11741988_at) / Fold change /veh MBOAT4 (11741988_at) / RFU 11764193_at / Fold change /veh 11764193_at / RFU TMEM53 (11763286_at) / Fold change /veh TMEM53 (11763286_at) / RFU MAGEB2 (11727129_at) / Fold change /veh MAGEB2 (11727129_at) / RFU TMEM200A (11744735_a_at) / Fold change /veh TMEM200A (11744735_a_at) / RFU CCDC152 (11751479_a_at) / Fold change /veh CCDC152 (11751479_a_at) / RFU FAM211A (11726209_a_at) / Fold change /veh FAM211A (11726209_a_at) / RFU RGS16 (11746705_a_at) / Fold change /veh RGS16 (11746705_a_at) / RFU VCAN (11755009_s_at) / Fold change /veh VCAN (11755009_s_at) / RFU RHOB (11743442_s_at) / Fold change /veh RHOB (11743442_s_at) / RFU RGS16 (11720943_a_at) / Fold change /veh RGS16 (11720943_a_at) / RFU RGS16 (11720944_at) / Fold change /veh RGS16 (11720944_at) / RFU, VPS4B / Fold change vs veh, VPS4B / RFU, CREB1 / Fold change vs veh, CREB1 / RFU, DNAJC13 / Fold change vs veh, DNAJC13 / RFU, GNAQ / Fold change vs veh, GNAQ / RFU, CDK5R1 / Fold change vs veh, CDK5R1 / RFU, ZRANB3 / Fold change vs veh, ZRANB3 / RFU, CUL4A / Fold change vs veh, CUL4A / RFU, CCNY / Fold change vs veh, CCNY / RFU, UFL1 / Fold change vs veh, UFL1 / RFU, COG3 / Fold change vs veh, COG3 / RFU, DIAPH2 / Fold change vs veh, DIAPH2 / RFU, SKA2 / Fold change vs veh, SKA2 / RFU, AFF3 / Fold change vs veh, AFF3 / RFU, LMF1 / Fold change vs veh, LMF1 / RFU, IPO11 / Fold change vs veh, IPO11 / RFU, DFFB / Fold change vs veh, DFFB / RFU, FOXP1 / Fold change vs veh, FOXP1 / RFU, CARD8 / Fold change vs veh, CARD8 / RFU, STRN3 / Fold change vs veh, STRN3 / RFU, ADK / Fold change vs veh, ADK / RFU, RASSF2 / Fold change vs veh, RASSF2 / RFU, WIPF1 / Fold change vs veh, WIPF1 / RFU, LARP1B / Fold change vs veh, LARP1B / RFU, RASA1 / Fold change vs veh, RASA1 / RFU, RB1 / Fold change vs veh, RB1 / RFU, PPFIA1 / Fold change vs veh, PPFIA1 / RFU, MAT2A / Fold change vs veh, MAT2A / RFU, CCT5 / Fold change vs veh, CCT5 / RFU, WDR92 / Fold change vs veh, WDR92 / RFU, CUX1 / Fold change vs veh, CUX1 / RFU, TTC7A / Fold change vs veh, TTC7A / RFU, TMEM135 / Fold change vs veh, TMEM135 / RFU, DEPTOR / Fold change vs veh, DEPTOR / RFU, CPM / Fold change vs veh, CPM / RFU, DNAJB6 / Fold change vs veh, DNAJB6 / RFU, CACNA2D3 / Fold change vs veh, CACNA2D3 / RFU, DTX4 / Fold change vs veh, DTX4 / RFU, TFCP2 / Fold change vs veh, TFCP2 / RFU, GMCL1 /// GMCL1P1 / Fold change vs veh, GMCL1 /// GMCL1P1 / RFU, AEBP2 / Fold change vs veh, AEBP2 / RFU, SNHG1 /// SNORD22 /// SNORD25 /// SNORD26 /// SNORD27 /// SNORD28 /// SNORD29 /// SNORD31 / Fold change vs veh, SNHG1 /// SNORD22 /// SNORD25 /// SNORD26 /// SNORD27 /// SNORD28 /// SNORD29 /// SNORD31 / Fold change (Aza/veh), C12orf56 (ProbeSet 11735607_a_at) / Fold change (ACY-1035/veh), C12orf56 (ProbeSet 11735607_a_at) / Fold change (Aza/veh), FGFR1OP (ProbeSet 11751329_s_at) / Fold change (ACY-1035/veh), FGFR1OP (ProbeSet 11751329_s_at) / Fold change (Aza/veh), VPS36 (ProbeSet 11739960_a_at) / Fold change (ACY-1035/veh), VPS36 (ProbeSet 11739960_a_at) / RFU SYPL1 (11715823_x_at) / Fold change /veh SYPL1 (11715823_x_at) / RFU IGFBP7 (11715501_s_at) / Fold change /veh IGFBP7 (11715501_s_at) / RFU REEP3 (11722064_at) / Fold change /veh REEP3 (11722064_at) / RFU IGLL1 (11728026_x_at) / Fold change /veh IGLL1 (11728026_x_at): dose or concentration left out as unconfirmed. Particulars: ProbeSet 11731093_s_at; LIST B.

Turning to `Nc1ncn([C@@H]2O[C@H](CO)[C@@H](O)[C@H]2O)c(=O)n1` [azacitidine], the “RFU, BRD1” value came to 186.03 RFU.
